# Source: article PMC5729930, “Bitopic fluorescent antagonists of the A2A adenosine receptor based on pyrazolo[4,3-e][1,2,4]triazolo[1,5-c]pyrimidin-5-amine functionalized congeners” (MedChemComm, 2017)
# Values joined by “and” are separate entries in the source; they are usually repeats but may differ in a detail not shown here. Identical values can stand only once.
# Experiments:
# [1] = target: T1, mA2AAR (Mus musculus, UniProt Q60613); experiment: Competition radioligand binding, mA2AAR; details: mouse A2AAR, HEK-293 membranes, mean ± SEM; read-out: Affinity, Ki, A2A (m) (converted)
# T1 construct: expressed in transfected cells; host or cells: HEK-293
# Protocol: (§1) The affinity of the amine congeners and other antagonists was measured using standard radioligand binding assays for hA1, A2A and A3ARs (Table 1).[1],[13],[14],[22] Membranes of human embryonic kidney (HEK)293 cells expressing the AR of interest were used in the assay. Primary amine congeners 6a–6d containing spacers of 2–5 methylenes were similar in terms of hA2AAR affinity (Ki 6–9 nM), with the butylamino congener 6c displaying the highest A2AAR selectivity in the series. The affinity of this compound for the hA3AR was determined to be 6.0 μM, with only slightly higher hA1AR affinity. Homologation to 6 methylenes in compound 6e lowered A2AAR affinity. […] No dependence of the affinity on the chain length was evident when comparing AlexaFluor647 conjugates 9 and 10.
# (§2) Cell culture for membrane binding assays and flow cytometry: HEK-293 cells stably expressing the A2AAR were grown in Dulbecco’s Modified Eagle’s Medium (DMEM) with 10% FBS, 100 units/ml penicillin, […] streptomycin, 2 mM L-glutamine and 0.500 mg/mL G418 Sulfate (Geneticin). […]
# (§3) Radioligand binding assays: Cell membranes were prepared as reported.1
# (§4) Binding assays were carried out using standard radioligands and membrane preparations from HEK-293 cells stably expressing the human (h) A1, A2A or A3ARs or mouse (m) A1, A2A or A3ARs. The radioligands used were: A1AR, [3H]8-cyclopentyl-1,3-dipropylxanthine 14; A2AAR, [3H]2; A3AR, [125I]N6-(4-amino-3-iodobenzyl)adenosine-5′-N-methyluronamide 16. The radioligand for archival A2AAR affinity data presented in Table 1 was [3H]2-[p-(2-carboxyethyl)phenyl-ethylamino]-5′-N-ethylcarboxamidoadenosine 15. Nonspecific binding was determined using 10 µM 8-[4-[[[[(2-aminoethyl)amino]carbonyl]methyl]oxy]phenyl]-1,3-dipropylxanthine 17 (A1AR and A2AAR) or 10 µM adenosine-5′-N-ethyluronamide 18 (A3AR). HEK-293 cells expressing recombinant mA1, A2A, or A3AR […]
# (§5) Protein was determined as reported.2 In all the binding experiments, IC50 values and Ki values were calculated using GraphPad Prism software (San Diego, CA). Values are expressed as mean±SEM. […]
# (§6) Med. Chem. Comm., 2015, 6:555-563.
# (§7) 2. Bradford, M. M. A rapid and sensitive method for the quantitation of microgram quantities of protein utilizing the principle of protein -dye binding. Anal. Biochem. 1976, 72, 248-254.
# [2] = target: T2, A2AAR (Homo sapiens, UniProt P29274); experiment: Competition radioligand binding, hA2AAR ([3H]ZM241385 or [3H]CGS21680); details: for Ki / fold weaker A2AAR affinity with respect to the parent amino derivative 6c: human A2AAR; for Ki: HEK-293 membranes, [3H]ZM241385 1.0 nM, 1 h 25 °C, mean ± SEM, read-out: Affinity, Ki, A2A
# T2 construct: expressed in transfected cells
# Protocol: as §1
# Fig. 1 Antagonist radioligand ([^3H]2, 1.0 nM) binding inhibition curves for the hA2AAR for four antagonist fluorescent conjugates. Compound numbers: MRS7322 9, MRS7395 10, MRS7396 11 and MRS7416 12. Membranes from HEK-293 cells expressing the hA2AAR were used, and their incubation was performed for 1 h at 25 °C. Results are expressed as the mean ± SEM.
# as §2, §3, §4, §5, §6, §7
# [3] = target: T3, hA2AAR (Homo sapiens, UniProt P29274); experiment: Flow cytometry saturation binding of fluorescent antagonists in whole cells; type: cell-based; details: hA2AAR-expressing HEK-293 cells; for nonspecific binding: result in words
# T3 construct: expressed in transfected cells
# Protocol: Compounds 11 and 12 were tested as fluorescent tracers for flow cytometry of HEK-293 cells expressing the hA2AAR (Fig. 4A). […] Thus, 11 tended to bind non-specifically to hydrophobic membranes by undetermined mechanisms. […]. For inhibition studies, the cells were co-incubated for one hour prior to flow cytometry with fluorescent probe 12 (10 nM) and a test antagonist. […]
# Fig. 4 Saturation of fluorescent antagonists 11 (A) and 12 (B) in hA2AAR-expressing HEK-293 cells measured using flow cytometry following a 1 h incubation at 37 °C. Non-specific binding was determined with 10 μM 3. Results are expressed as the mean ± SEM. The Kd value calculated from Fig. 4B is listed in the text.
# Cell culture for membrane binding assays and flow cytometry: HEK-293 cells stably expressing the A2AAR were grown in Dulbecco’s Modified Eagle’s Medium (DMEM) with 10% FBS, 100 units/ml penicillin, […] streptomycin, 2 mM L-glutamine and 0.500 mg/mL G418 Sulfate (Geneticin). Cells were maintained in a humidified atmosphere and sterile incubation conditions held at 37 °C and 5% CO2 (g). A day prior to the experiment, cells were plated on a 96 -well clear and flat bottom plate at 80 -90% confluency in 100 µL of medium. […]
# Fluorescent binding studies: All binding studies were done in triplicate. For saturation binding studies, cells were treated with 50 µL of 11 (MRS 7396) or 12 (MRS 7416), to achieve a final concentration from 0.19 to 400 nM, and 50 µL of Tris-HCl buffer containing 10 mM MgCl2. Non-specific binding was determined with SCH442416 3 (final concentration of 10 µM, in Tris-HCl buffer). For displacement experiments, cells were incubated simultaneously with 50 µL of 40 nM 11 or 12 (final concentration 10 nM) and 50 µL of the non-labeled displacing ligand at increasing concentrations. The total binding was measured in the absence of a displacing ligand, and non-specific binding was determined with 10 µM 3.
# After 1 h at 37 °C (for both the saturation and displacement experiments), the medium was removed and the cells were carefully washed two times with 150 µL of ice-cold PBS (not containing Mg+2 or Ca+2).
# The cells were treated with 40 µL of Corning Cellstripper (Mediatech, Manassas, VA) per well and then incubated at 37 °C for 10 min. To each well was subsequently added 160 µL of PBS (not containing Mg+2 or Ca+2), and the cell fluorescence was analyzed with a BD FACSCalibur flow cytometer (Becton, Dickinson and Co., Franklin Lakes, NJ) with excitation at 635 nm (red diode laser, for 11) or 488 nm (blue laser, for 12) in conjunction with the software from BD Bioscience PlateManager and CellQuest. […]
# 2. Bradford, M. M. A rapid and sensitive method for the quantitation of microgram quantities of protein utilizing the principle of protein -dye binding. […]
# T2 sequence (P29274 whole entry): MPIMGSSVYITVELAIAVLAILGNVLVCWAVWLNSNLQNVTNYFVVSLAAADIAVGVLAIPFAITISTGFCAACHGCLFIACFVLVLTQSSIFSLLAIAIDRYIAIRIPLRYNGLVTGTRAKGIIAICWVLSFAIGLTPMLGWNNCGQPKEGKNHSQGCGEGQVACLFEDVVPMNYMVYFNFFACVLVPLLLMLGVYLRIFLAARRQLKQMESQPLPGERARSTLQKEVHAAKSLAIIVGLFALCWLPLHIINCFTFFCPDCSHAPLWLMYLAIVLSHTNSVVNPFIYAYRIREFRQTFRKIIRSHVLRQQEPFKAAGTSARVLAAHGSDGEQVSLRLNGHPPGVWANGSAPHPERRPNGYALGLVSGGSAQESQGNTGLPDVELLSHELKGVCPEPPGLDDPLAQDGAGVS
# T3 sequence (P29274 whole entry): as above
# T1 sequence (Q60613 whole entry): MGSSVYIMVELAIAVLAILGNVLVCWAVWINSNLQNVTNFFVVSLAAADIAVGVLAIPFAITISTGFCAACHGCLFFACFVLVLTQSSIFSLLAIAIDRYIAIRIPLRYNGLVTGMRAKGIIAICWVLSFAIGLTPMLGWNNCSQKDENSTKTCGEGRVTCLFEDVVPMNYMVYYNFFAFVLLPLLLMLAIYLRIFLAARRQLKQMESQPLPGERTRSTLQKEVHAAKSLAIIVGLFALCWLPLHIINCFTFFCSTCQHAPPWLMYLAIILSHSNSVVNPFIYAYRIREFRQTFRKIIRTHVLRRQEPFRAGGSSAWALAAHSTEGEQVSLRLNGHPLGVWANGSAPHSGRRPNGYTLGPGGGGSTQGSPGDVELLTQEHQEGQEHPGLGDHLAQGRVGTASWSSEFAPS
SMILES,Ki [1],A2AAR selectivity compared to the hA1AR ([2]; hA2AAR vs hA1AR binding) [fold],A2AAR selectivity compared to the hA3AR ([2]; hA2AAR vs hA3AR binding) [fold],Ki [2] [nM],fold weaker A2AAR affinity with respect to the parent amino derivative 6c [2] [fold],"specific binding, % of the total ([3]; 1 h 37 °C, nonspecific with 10 μM 3) [%]",nonspecific binding [3],Kd ([3]; 1 h 37 °C) [nM]
N.Nc1nc2c(cnn2CCCc2ccc(OCc3ccc(S(=O)(=O)O)cc3)cc2)c2nc(-c3ccco3)nn12 [compound 13],64.1 nM,671,426,6.2,,,,
Nc1nc2c(cnn2CCCc2ccc(OCC(=O)NCCCCNC(=O)CCCCCNC(=O)COc3ccc(/C=C/C4=[N+]5C(=Cc6ccc(-c7cccs7)n6[B-]5(F)F)C=C4)cc3)cc2)c2nc(-c3ccco3)nn12 [compound 11],2.1 nM and 2.09 nM,,,24.6 ± 17.6,4,< 25,high nonspecific binding,
CCN(CC)CC.CCN(CC)CC.N=c1ccc2c(-c3ccc(C(=O)NCCCCNC(=O)COc4ccc(CCCn5ncc6c5nc(N)n5nc(-c7ccco7)nc65)cc4)cc3C(=O)O)c3ccc(N)c(S(=O)(=O)O)c3oc-2c1S(=O)(=O)O [compound 12],585 nM,,,30.3 ± 4.9,4,,low nonspecific binding,45.4
